Experiments:
[1] = system: HaCaT cells; type: cell-based; conditions: 48 h, MTT
Description: HaCaT cells (CLS Cell Lines Service, Germany) were cultured in Dulbecco's modified eagle medium (DMEM) medium supplemented with 4.5 g/L glucose, 2 mM L-glutamine and 10% fetal bovine serum. Cells were seeded on 24- or 12-well plates and grown to 80% confluence for the following assays.
Exponentially growing cells of passage #3-6 (3000 cells/well in 100 μl medium) were plated in 96-well plates overnight to allow cell attachment (80% confluency) and then exposed to different concentrations of diacerein (0.1, 1, 10 μM) or berberine (0.1, 1, 10 μM) or clobetasol propionate (0.1, 1, 10 μM), and either 2 mg/mL of Healthy-IgG BP-IgG or Specific-IgG at 37° C. for 48 h.
Following drug treatment, the cell culture media were gently removed. Cells were then gently washed three times with warm medium to remove any de-attached and dead cells. Cells were incubated with MTT reagent in cell culture medium at a final concentration of 1.0 mg/mL for 2 h. The quantity of formazan (presumably directly proportional to the number of viable cells) was measured by recording changes in absorbance at 570 nm using an ELISA plate reader.

[2] = system: IL-6 mRNA; assay: Quantitation of IL-6 mRNA expression by quantitative real-time PCR; type: cell-based, human; conditions: BP IgG-treated HaCaT cells; 0.1, 1, 10 μM; 48 h; RT-qPCR normalized to GAPDH
Description: (§1) IL-6 and IL-8 messenger RNA (mRNA) levels were quantitated using quantitative real-time polymerase chain reaction (qPCR) as reported previously. BP IgG-treated HaCaT cells were cultured with or without diacerein or berberine or clobetasol propionate for 48 h. Total RNA was isolated from cultured HaCaT cells using TRIzol reagent (LifeTechnologies) according to the manufacturer's instruction. Complementary DNA (cDNA) was reverse-transcribed from isolated RNA by incubating 1 μg of RNA with the RevertAid First Strand cDNA Synthesis Kit (Thermo Scientific) following the manufacturer's instructions. Quantitative RT-PCR was performed in a Mastercycler (Eppendorf) using SYBR® Select Master Mix (Life Technologies). PCR mixtures contained 0.5 μM of each forward and reverse primers. Each reaction mixture was subjected to 2 min at 50° C. and 2 min at 95° C. followed by 40 cycles with 15 seconds at 95° C. and 1 min at 60° C. Data were normalized to the housekeeping gene glyceraldehyde-3-phosphate dehydrogenase (GAPDH). The primers used in RT-PCR were as follows: IL-8 messenger RNA (mRNA), forward, 5′-ACCGGAAGGAACCATCTCAC-3′, and reverse, 5′-AAACTGCACCTTCACACAGAG-3′ and IL-6 messenger RNA (mRNA), forward, 5′-GGTACATCCTCGACGGCATCT-3′, and reverse, 5′-GTGCCTCTTTGCTGCTTTCAC-3′ and GAPDH, forward, 5′-ACAACTTTGGTATCGTGGAAGG-3′, and reverse, 5′-GCC ATC ACG CCA CAG TTT-3′.

[3] = system: IL-6; assay: Pro-inflammatory cytokine measurement: IL-6 in culture supernatant by ELISA; type: cell-based, human; conditions: HaCaT cells treated with BP-IgG or specific anti-BP180 IgG 2 mg/mL; 0.1, 1, 10 μM; 48 h
Description: (§2) HaCaT cells (CLS Cell Lines Service, Germany) were cultured in Dulbecco's modified eagle medium (DMEM) medium supplemented with 4.5 g/L glucose, 2 mM L-glutamine and 10% fetal bovine serum. Cells were seeded on 24- or 12-well plates and grown to 80% confluence for the following assays. Cytokine measurement was conducted based on previous studies. Briefly, cells were incubated with medium alone or with 2 mg/mL purified BP-IgG or Specific-IgG and cultured in absence or presence of diacerein or berberine or clobetasol propionate (0.1, 1, and 10 μM) and culture supernatants were collected after 48 h of incubation, and stored for analysis at −20° C. IL-6 and IL-8 levels were analyzed in cell culture supernatants by ELISA (BD Biosciences) according to the manufacturer's instructions.

[4] = system: BP180; assay: Immunofluorescence study of BP180 internalization in keratinocytes treated with BP-IgG; type: cell-based, human; conditions: 0.1 to 10 μM, confocal microscopy
Description: For this BP180 internalization study, IgG purification from BP patients and cell culture treated with different IgG and drugs (diacerein or berberine) were performed according to the procedures described in Example 1. Keratinocytes grown on glass coverslips were fixed in 4% paraformaldehyde, washed thoroughly in PBS, and permeabilized in 0.1% (v/v) Triton X-100 in PBS for 10 minutes. Primary antibodies were overlaid onto the cells, and the preparations were incubated at room temperature for 1 hour. The cells on coverslips were washed with PBS, and fluorescence-conjugated secondary antibodies were applied for 1 hour at room temperature. After being washed with PBS, coverslips were mounted onto slides. The fluorescence color for cell nucleus was dark blue and BP180 was bright green. All preparations were examined by the confocal microscopy.

[5] = system: IL-8; assay: Pro-inflammatory cytokine measurement: IL-8 in culture supernatant by ELISA; type: cell-based, human; conditions: 48 h
Description: as §2

[6] = system: IL-8 mRNA; assay: Quantitation of IL-8 mRNA expression by quantitative real-time PCR; type: cell-based, human; conditions: BP IgG-treated HaCaT cells; 0.1, 1, 10 μM; 48 h; RT-qPCR normalized to GAPDH
Description: as §1

| Structure (SMILES) | cytotoxicity to HaCaT cells ([1]; treatment at 0.1-10 μM) | IL-6 mRNA expression levels [2] | secretion of IL-6 [3] | HaCaT viability in presence of IgG ([1]; 10 μM, with Healthy-IgG, BP-IgG or BP Specific-IgG) | HaCaT viability ([1]; treatment at 0.1-10 μM) | membranous localization of BP180 (BP180 internalization) [4] | secretion of IL-8 ([5]; 0.1 μM, HaCaT cells treated with specific anti-BP180 IgG) | secretion of IL-8 ([5]; 1 or 10 μM, HaCaT cells treated with specific anti-BP180 IgG) | IL-8 mRNA expression levels [6] | secretion of IL-8 ([5]; HaCaT cells treated with BP-IgG or Specific-IgG 2 mg/mL, 0.1, 1, 10 μM) |
| --- | --- | --- | --- | --- | --- | --- | --- | --- | --- | --- |
| COc1ccc2cc3[n+](cc2c1OC)CCc1cc2c(cc1-3)OCO2 [berberine, 5,6-dihydro-9,10-dimethoxybenzo(g)-1,3-benzodioxolo (5,6-a) quinolizinium] | did not have significant cytotoxicity |  |  |  |  |  |  |  |  |  |
| CC(=O)Oc1cccc2c1C(=O)c1c(OC(C)=O)cc(C(=O)O)cc1C2=O [diacerein, 4,5-bis (acetyloxy) 9, 10-dihydro-4,5-dihydroxy-9, 10-dioxo-2-anthracenecarboxylic acid] | significant cytotoxicity | dose-dependent inhibitory effects on IL-6 mRNA expression levels | significantly reduced secretion of IL-6 | still significantly reduced HaCaT viability | 50% | membranous localization of BP180 was restored | did not reduce the secretion of IL-8 | inhibitory effects of diacerein on IL-8 secretion were noted only at concentrations at 1 or 10 μM | inhibitory effects on IL-8 mRNA only at 10 μM |  |
| CCC(=O)O[C@]1(C(=O)CCl)[C@@H](C)C[C@H]2[C@@H]3CCC4=CC(=O)C=C[C@]4(C)[C@@]3(F)[C@@H](O)C[C@@]21C [clobetasol propionate] | did not have significant cytotoxicity | significantly reduced the IL-6 and IL-8 mRNA expression levels | reduced IL-6 (FIG. 1a) and IL-8 secretion (FIG. 1b) in a dose-dependent manner |  |  |  |  |  | significantly reduced the IL-6 and IL-8 mRNA expression levels | reduced IL-6 (FIG. 1a) and IL-8 secretion (FIG. 1b) in a dose-dependent manner |
